# Assay results taken from patent publication US20220281779A1, “Fertiliser and/or Soil Improver Composition, Method of Preparation and Method of Use” (Veratin Pty Ltd, priority 2016, published 2022).
# Test system: Sceptre wheat
# Assay: Field wheat trial
# Assay type: in vivo
# Settings: total N applied: nV-2 17 units, Flexi-N and Urea 59 units
# Procedure: A fertiliser and/or soil improver composition (nV-2) is prepared using a method exemplified in Example III, with a sheep wool material (uncleaned and/or containing the fat layer) being deconstructed using a eutectic melt comprising urea:choline chloride at a ratio in the range of from about 7.5:1 to about 4:1, and with the temperature for the deconstruction of wool being in a range of approximately 145-165° C. (or more specifically approximately 145-160° C.). The composition (nV-2) was also prepared at a weight to volume ratio of the wool to eutectic melt in the range of from about 1 g:1 ml to about 1 g:25 ml.
# The resultant fertiliser and/or soil improver composition (nV-2) comprises 35% (w/v) of total N (nitrogen) and has pH in the range of pH 5.5-6.5. For the field application, the composition nV-2 was mixed with water (as a carrier) in a ratio of approximately 52 L water to approximately 48 L of nV-2.
# The field wheat trial was established as a randomised complete block of 5 treatments and 4 replicates in a single bank with each plot 12 meter long by 2 meter wide.
# The effectiveness of the fertiliser and/or soil improver composition nV-2 according to the present invention on plant growth (wheat in this instance) and/or as an organic nitrogen nutrient source, is compared with a commercial inorganic fertiliser (Flexi-N, which is a commercially available fertiliser distributed by the Australian Company CSBP and contains three forms of N—urea, ammonium and nitrate, with a total N concentration of 42%), and with Urea alone (at 46% total N). […]
# At 41 and 75 days after sowing, the NDVI was recorded for each plot using a hand-held green-seeker.
# At 209 days after sowing, the trial was plot harvested for yield comparisons with grain samples collected from each plot and analysed for quality (protein, moisture, specific weight and screenings) according to industry standards.
# All data collected was statistically analysed with the proprietary agricultural field research program ARM® using an Analysis of Variance at a confidence limit of 95%.
structure (smiles),measurement,setting,value
NC(N)=O [Urea],Average crop yield,harvest 209 days after sowing,7.848
same,Average crop yield/Unit of N,,0.133
same,Net crop yield/unit of N,,0.009
